Structures can show the parent of a compound that is named as a salt.
Target: T1, H+,K+-ATPase (Sus scrofa, UniProt P19156)
T1 construct: a microsomal fraction of gastric mucosa was prepared from the stomach of swine; from tissue; host or cells: swine stomach, gastric mucosa microsomal fraction
Assay: Proton Potassium-Adenosine Triphosphatase (H+,K+-ATPase) inhibitory activity test
Type: biochemical
Conditions: microsomal fraction of swine gastric mucosa; pH 6.5, 37° C., 10 mmol/L potassium chloride; malachite green colorimetry at 610 nm
Description: Proton Potassium-Adenosine Triphosphatase (H^+,K^+-ATPase) Inhibitory Activity Test
According to the method of Wallmark et al. [Biochim. Biophys. Acta, 728, 31 (1983)], a microsomal fraction of gastric mucosa was prepared from the stomach of swine. First, the stomach was removed, washed with tap water, and immersed in 3 mol/L sodium chloride, and the surface of the mucosa was wiped with a paper towel. The gastric mucosa was removed, minced, and homogenized in a 0.25 mol/L sucrose solution (pH 6.8) containing 1 mmol/L EDTA and 10 mmol/L tris-hydrochloric acid using polytron (Kinematica). The obtained homogenate was centrifuged at 20,000×g for 30 min and the supernatant was centrifuged at 100,000×g for 90 min. The precipitate was suspended in 0.25 mol/L sucrose solution, the suspension was superimposed on a 0.25 mol/L sucrose solution containing 7.5% Ficoll, and centrifuged at 100,000×g for 5 hr. The fraction containing the interface between the both layers was recovered, and centrifugally washed with 0.25 mol/L sucrose solution.
The obtained microsomal fraction was used as an H^+/K^+-ATPase preparation.
To 50 mmol/L HEPES-tris buffer (5 mmol/L magnesium chloride, 10 mmol/L potassium chloride, 10 μmol/L valinomycin, pH=6.5, 40 μL) containing 2.5 μg/mL enzyme preparation based on the protein concentration was added a test compound (5 μL) dissolved in 10% dimethyl sulfoxide solution, and the mixture was incubated at 37° C. for 30 min. A 2 mmol/L adenosine triphosphate tris salt solution (50 mmol/L HEPES-tris buffer (5 mmol/L magnesium chloride, pH 6.5), 5 μL) was added to start an enzyme reaction. The enzyme reaction was performed at 37° C. for 20 min, and then a malachite green solution (a mixture of 0.12% malachite green sulfate (2.5 mol/L) solution, 7.5% ammonium molybdate and 11% Tween 20 at a ratio of 100:25:2, 15 μL) was added to stop the reaction. The reaction mixture was stood at room temperature for 15 min, and the resulting reaction product of inorganic phosphorus and malachite green was measured by colorimetric quantification at a wavelength of 610 nm. In addition, the amount of inorganic phosphoric acid in a reaction solution free of potassium chloride was also measured in the same manner, and the value was extracted from that in the presence of potassium chloride, whereby the H^+,K^+-ATPase activity was measured. The inhibitory rate (%) was determined from the activity value of the control and that at each concentration of the test compound, and 50% inhibitory concentration (IC50) to H^+,K^+-ATPase was determined.

T1 sequence (P19156 2-1034 limits assumed): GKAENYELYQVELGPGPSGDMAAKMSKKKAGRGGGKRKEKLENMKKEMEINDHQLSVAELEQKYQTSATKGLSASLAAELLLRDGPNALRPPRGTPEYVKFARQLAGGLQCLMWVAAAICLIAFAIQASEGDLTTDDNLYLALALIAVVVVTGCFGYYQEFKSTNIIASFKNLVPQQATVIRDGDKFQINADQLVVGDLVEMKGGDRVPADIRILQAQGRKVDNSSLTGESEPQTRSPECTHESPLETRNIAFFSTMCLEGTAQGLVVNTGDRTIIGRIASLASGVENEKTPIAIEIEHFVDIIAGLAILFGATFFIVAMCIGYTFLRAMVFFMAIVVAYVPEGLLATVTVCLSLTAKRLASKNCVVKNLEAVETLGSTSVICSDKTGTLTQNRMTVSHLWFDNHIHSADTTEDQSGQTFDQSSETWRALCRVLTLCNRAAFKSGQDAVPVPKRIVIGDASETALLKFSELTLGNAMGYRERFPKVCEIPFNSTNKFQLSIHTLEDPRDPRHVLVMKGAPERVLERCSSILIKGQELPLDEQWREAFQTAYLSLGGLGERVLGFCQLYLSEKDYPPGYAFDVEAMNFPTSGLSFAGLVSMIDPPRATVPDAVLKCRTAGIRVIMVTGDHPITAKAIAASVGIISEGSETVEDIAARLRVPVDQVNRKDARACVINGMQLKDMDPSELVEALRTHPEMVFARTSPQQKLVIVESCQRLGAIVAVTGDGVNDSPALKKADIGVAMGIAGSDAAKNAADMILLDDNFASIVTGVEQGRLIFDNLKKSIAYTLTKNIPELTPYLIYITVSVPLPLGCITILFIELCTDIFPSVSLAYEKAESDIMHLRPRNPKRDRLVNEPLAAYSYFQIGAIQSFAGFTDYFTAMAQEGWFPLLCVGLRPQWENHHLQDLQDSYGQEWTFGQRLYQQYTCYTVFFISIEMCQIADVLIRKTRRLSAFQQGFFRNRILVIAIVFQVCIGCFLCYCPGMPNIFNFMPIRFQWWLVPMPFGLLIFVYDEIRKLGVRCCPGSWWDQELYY
T1 sequence (P18434 whole entry partner): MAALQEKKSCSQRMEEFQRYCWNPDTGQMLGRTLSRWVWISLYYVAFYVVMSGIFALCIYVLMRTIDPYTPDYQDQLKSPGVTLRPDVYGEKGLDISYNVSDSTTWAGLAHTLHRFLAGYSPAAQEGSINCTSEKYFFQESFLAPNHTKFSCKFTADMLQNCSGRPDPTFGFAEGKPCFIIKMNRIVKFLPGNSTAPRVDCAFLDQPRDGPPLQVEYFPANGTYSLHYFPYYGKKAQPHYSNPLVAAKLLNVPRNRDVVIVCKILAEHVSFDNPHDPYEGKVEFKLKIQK

Question: How did the IC50 turn out when `CNCc1cn(Cc2ccc(F)cc2)c(-c2ccccc2)n1` [Example 3, 1-[1-(4-fluorobenzyl)-2-phenyl-1H-imidazol-4-yl]-N-methylmethanamine dihydrochloride] was run?
Answer: 309000 nM

Question: Which IC50 does the source give for `CNCc1nc(-c2ccccc2)n(Cc2ccc(F)cc2)c1Cl` [Example 6, 1-[5-chloro-1-(4-fluorobenzyl)-2-phenyl-1H-imidazol-4-yl]-N-methylmethanamine oxalate] here?
Answer: 1400 nM

Question: `CNCc1cc(-c2ccccc2F)c(Sc2cccc(OC)c2)s1` [Example 10, 1-{4-(2-fluorophenyl)-5-[(3-methoxyphenyl)thio]-2-thienyl}-N-methylmethanamine fumarate] was tested. Which IC50 did it give?
Answer: 170 nM

Question: Which IC50 does the source give for `CNCc1cc(-c2ccccc2F)c([S+]([O-])c2cccc(OC)c2)s1` (stereo not shown) [Example 11, 1-{4-(2-fluorophenyl)-5-[(3-methoxyphenyl)sulfinyl]-2-thienyl}-N-methylmethanamine fumarate] here?
Answer: 400 nM

Question: For `CNCc1cc(-c2cccnc2F)c(Sc2nccs2)s1` [Example 18, 1-{4-(2-fluoropyridin-3-yl)-5-[(1,3-thiazol-2-yl)thio]thiophen-2-yl}-N-methylmethanamine fumarate], which IC50 is on record?
Answer: 2200 nM

Question: `CNCc1cc(-c2cccnc2F)c(Sc2ccoc2C)s1` [Example 19, 1-{4-(2-fluoropyridin-3-yl)-5-[(2-methylfuran-3-yl)thio]thiophen-2-yl}-N-methylmethanamine hydrochloride] was tested. Which IC50 did it give?
Answer: 220 nM

Question: Which IC50 does the source give for `CNCc1cc(Sc2ccc(Cl)nc2)n(-c2ccccc2Cl)n1` [Example 27, 1-{1-(2-chlorophenyl)-5-[(6-chloropyridin-3-yl)thio]-1H-pyrazol-3-yl}-N-methylmethanamine hydrochloride] here?
Answer: 31 nM

Reference: US8334301B2, “5-Membered heterocyclic compound” (Takeda Pharmaceutical Company Limited, priority 2007, dated 2012)
